The target of experiment [1] is T1, recombinant human BCAT1 enzyme (Homo sapiens, UniProt P54687).
T1 construct: purchased ATGen (South Korea) ATGP1479
T1 sequence (P54687 1-386): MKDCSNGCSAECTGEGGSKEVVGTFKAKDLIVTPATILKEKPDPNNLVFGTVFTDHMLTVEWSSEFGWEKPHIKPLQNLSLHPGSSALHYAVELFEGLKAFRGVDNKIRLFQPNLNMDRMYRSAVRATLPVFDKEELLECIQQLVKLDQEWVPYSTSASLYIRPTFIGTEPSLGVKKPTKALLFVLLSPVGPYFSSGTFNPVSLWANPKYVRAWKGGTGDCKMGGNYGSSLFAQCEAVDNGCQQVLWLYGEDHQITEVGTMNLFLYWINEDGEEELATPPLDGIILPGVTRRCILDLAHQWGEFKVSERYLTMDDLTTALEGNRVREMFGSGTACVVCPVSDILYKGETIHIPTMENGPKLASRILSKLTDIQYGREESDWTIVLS
The experiment can be described thus: In vitro assay 1a: BCAT1 biochemical assay (coupled LeuDH/NADH fluorescence readout). The settings on record: recombinant human BCAT1 […], 32° C., 100 μM leucine, 50 μM α-ketoglutarate, NADH fluorescence over 90 min; read-out: BCAT1 IC50. In outline: (§1)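 Transamination of leucine to KIC coupled to LeuDH-driven NADH-dependent reduction of KIC, NADH consumption read by fluorescence; 32° C in 50 mM HEPES pH 8.0, 50 mM ammonium sulfate, 1 mM EDTA, 2 mM DTT, 0.01% BSA, 0.005% Brij 35, 0.5 μM PLP.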

In experiment [2] the target is T2, recombinant human BCAT2 enzyme (Homo sapiens, UniProt O15382).
T2 construct: purchased ATGen (South Korea) ATGP1523
T2 sequence (O15382 28-392): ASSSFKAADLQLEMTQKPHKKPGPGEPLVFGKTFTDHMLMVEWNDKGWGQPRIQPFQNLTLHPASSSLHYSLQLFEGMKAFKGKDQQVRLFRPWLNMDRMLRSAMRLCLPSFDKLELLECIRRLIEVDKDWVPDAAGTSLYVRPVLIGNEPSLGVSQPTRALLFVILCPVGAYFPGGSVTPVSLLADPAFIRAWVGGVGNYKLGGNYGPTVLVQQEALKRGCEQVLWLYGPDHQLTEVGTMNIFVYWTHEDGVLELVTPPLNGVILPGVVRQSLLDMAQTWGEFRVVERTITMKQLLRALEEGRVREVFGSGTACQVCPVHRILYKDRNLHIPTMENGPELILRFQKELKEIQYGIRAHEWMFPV
The experiment can be described thus: In vitro assay 1b: BCAT2 biochemical assay (coupled LeuDH/NADH fluorescence readout). Also: recombinant human BCAT2 0.75 nM. The settings on record: recombinant human BCAT2 […], 32° C., 100 μM leucine, 50 μM α-ketoglutarate, NADH fluorescence over 90 min; read-out: BCAT2 IC50. The method in brief: as §1

In the next experiment the test system is MDA-MB231 cells. Kind of experiment: In vitro assay 2: BCAT cellular assay, leucine in medium of MDA-MB231 cells. It is filed as cell-based. The conditions noted are these: 24 hours incubation, leucine level in medium (LeuDH/diaphorase/resazurin readout), read-out: MDAMB-231 IC50. The procedure: (§2) In Vitro Assay 2: BCAT Cellular Assay
(§3) Levels of leucine were measured in medium of different tumor cell lines. The enzyme BOAT (Branched chain amino acid transferase) catalyzes the consumption of leucine.
(§4) Cells (U87-MG and MDA-MB231 from ATCC) were grown in Dulbecco's Modified Eagle Medium (DMEM) containing 10% fetal calf serum. They were harvested by trypsin and seeded into 96-well plates. Cells were incubated overnight at 37° C. in an atmosphere containing 5% carbon dioxide. The next day test compounds were added to each cell well. The final concentration of dimethylsulfoxide (DMSO) was 0.1% and DMSO controls were included. The plates were then placed in an incubator for 24 hours.
(§5) Leucine was measured in an enzymatic readout with leucine dehydrogenase (LeuDH) and diaphorase. Medium is deproteinized with perchloric acid. 30 μl of 1 M aqueous perchloric acid was added to each well and the plates were centrifuged.
For orientation: Alamar Blue is a resazurin reagent that responds to reducing activity.

The test system of another experiment is U87-MG cells. Kind of experiment: In vitro assay 2: BCAT cellular assay, leucine in medium of U87-MG cells. Type of experiment: cell-based. The settings on record: Homo sapiens, U-87 MG, 24 h, 24 hours incubation, leucine level in medium (LeuDH/diaphorase/resazurin readout). On the procedure:
as §2, §3, §4, §5

Consider 5 molecules from patent US20220411381A1, “PYRIMIDINEDIONE DERIVATIVES” (Bayer Aktiengesellschaft, priority 2019, published 2022).

What is called IC50 is the concentration at which inhibition is half-maximal.

Where two headings read alike, the source gives them in different places.

Turning to `Cc1ccccc1Oc1cc(-n2c(=O)cc(Br)[nH]c2=O)c(F)cc1C#N` [Example 3, 4-(4-Bromo-2,6-dioxo-3,6-dihydropyrimidin-1(2H)-yl)-5-fluoro-2-(2-methylphenoxy)benzonitrile], the IC50 in experiment [1] is 0.315 µM; in experiment [2], 5.5 µM; in the experiment with MDA-MB231 cells (Homo sapiens, MDA-MB-231, 24 h) it was more than 30 µM; in the experiment on U87-MG cells it was 11.1 µM.
The corresponding values for `COc1cc(C#N)c(Oc2ccccc2Cl)cc1-n1c(=O)cc(C(F)(F)F)[nH]c1=O` (racemic) [Example 15, 2-(2-Chlorophenoxy)-4-[2,6-dioxo-4-(trifluoromethyl)-3,6-dihydropyrimidin-1(2H)-yl]-5-methoxybenzonitrile (rac)] are 0.148 µM, 0.83 µM, 17 µM and 20 µM.
Consider `Cc1ccccc1Oc1cc(-n2c(=O)cc(C(F)(F)Cl)[nH]c2=O)c(F)cc1C#N` [Example 40, 4-{4-[Chloro(difluoro)methyl]-2,6-dioxo-3,6-dihydropyrimidin-1(2H)-yl}-5-fluoro-2-(2-methylphenoxy)benzonitrile], for which the IC50 in experiment [1] was found to be 0.445 µM; in experiment [2], 2.2 µM; in the experiment with MDA-MB231 cells (Homo sapiens, MDA-MB-231, 24 h), 12 µM; in the experiment on U87-MG cells, 4.63 µM.
Turning to `N#Cc1ccc(-n2c(=O)cc(C(F)(F)F)[nH]c2=O)cc1Oc1ccccc1Cl` [Example 46, 2-(2-Chlorophenoxy)-4-[2,6-dioxo-4-(trifluoromethyl)-3,6-dihydropyrimidin-1 (2H)-yl]benzonitrile], the IC50 in experiment [1] was 0.675 µM; in experiment [2] it was 6 µM; with MDA-MB231 cells (Homo sapiens, MDA-MB-231, 24 h), more than 30 µM; in the experiment on U87-MG cells, 25 µM.
On to `Cc1cc(C#N)c(Oc2ccccc2Cl)cc1-n1c(=O)cc(C(F)(F)F)[nH]c1=O` (racemic) [Example 10, 2-(2-Chlorophenoxy)-4-[2,6-dioxo-4-(trifluoromethyl)-3,6-dihydropyrimidin-1 (2H)-yl]-5-methylbenzonitrile (rac)], for which the IC50 was 0.39 µM in experiment [1]; 6 µM in experiment [2]; more than 30 µM with MDA-MB231 cells; 30 µM in the experiment on MDA-MB231 cells (Homo sapiens, MDA-MB-231, 24 h); 13 µM with U87-MG cells.
